In patent US20260364184A1, “COMPOUND BASED ON OXOISOINDOLINYL-SUBSTITUTED TETRAHYDROPYRIMIDINE-DIONE AND USE THEREOF” (GLUETACS THERAPEUTICS (SHANGHAI) CO., LTD., priority 2023, published 2026):
Each block holds one compound with its values, some of them ahead of it.

How the values were obtained:
[1] = system: Human large cell immunoblastic lymphoma cell line SR; assay: Inhibition of SR cell proliferation (CellTiter luminescent viability); format: cell-based; details: Table IE1, CDK4/6 inhibitor-based, 96 hours, read-out: Inhibitory activity (IC50, nM) on tumor cell proliferation, SR
In short: (§1)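 Cells are seeded in 96-well plates, cultured at 37 °C, 5% CO2, and treated next day with 5-fold serial compound dilutions (stock series from 2000 μM; 0.5 μL into 100 μL medium). Viability is read by CellTiter-Meiluncell luminescence after the set exposure, and IC50 is taken from growth-inhibition curves.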

[2] = system: Human Acute T Lymphoblastic Leukemia Cells (Molt-4); assay: Inhibition of Molt-4 cell proliferation (CellTiter luminescent viability); format: cell-based; details: Table IE1, CDK4/6 inhibitor-based; Molt-4, 96 hours; read-out: Inhibitory activity (IC50, nM) on tumor cell proliferation, Molt-4
[3] = system: Human myeloid monocytic leukemia cell line (MV-4-11); assay: Inhibition of MV-4-11 cell proliferation (CellTiter luminescent viability); format: cell-based; details: Table IE1, CDK4/6 inhibitor-based; MV-4-11, 96 hours; read-out: Inhibitory activity (IC50, nM) on tumor cell proliferation, MV-4-11
In short: as §1

[4] = system: Human acute lymphocytic leukemia T lymphocytes cell line (CCRF-CEM); assay: Inhibition of CCRF-CEM cell proliferation (CellTiter luminescent viability); format: cell-based; details: Table IE1, CDK4/6 inhibitor-based, 96 hours, read-out: Inhibitory activity (IC50, nM) on tumor cell proliferation, CCRF-CEM
[5] = system: Human breast cancer cell line MCF-7; assay: Inhibition of MCF-7 cell proliferation (CellTiter luminescent viability); details: Table IE1, CDK4/6 inhibitor-based; MCF-7, 96 hours; read-out: Inhibitory activity (IC50, nM) on tumor cell proliferation, MCF-7
Method: The tumor cells used herein were cultured in a cell culture medium listed in table 3 at 37 °C in an incubator with 5% CO2. Prior to experimentation, all cell lines used were correctly identified by STR profiling, and tested negative for mycoplasma contamination using a mycoplasma detection kit through routine screenings.
The IC50 values of the compounds of the present disclosure (including the compounds in Table 1, Table 2, and Examples 1-468) were determined using the CellTiter-Meiluncell Luminescent Cell Viability Assay Kit from Dalian Meilun Biotech Co., Ltd. The detailed procedure is as follows: Tumor cells were seeded in 96-well cell culture plates at the densities specified in Table 4. On the following day, the test compounds of the present disclosure were subjected to serial dilution. The dilution can be performed according to one of the following two methods: • (1) The first dilution method: The test compounds of the present disclosure (including the compounds in Table 1, Table 2, and Examples 1-468) were subjected to 5-fold serial dilutions starting from a highest concentration of 2000 μM, resulting in a total of 9 concentrations from high to low (2000, 400, 80, 16, 3.2, 0.64, 0.128, 0.0256, 0.00512 μM). Subsequently, 0.5 μL of the test compound dilution was transferred into the 96-well plate containing the cells, with each well containing 100 μL of cell culture medium. […] Into the 96-well plate, the diluted test compounds and corresponding detection reagents were added, resulting in final test compound concentrations of 500 nM and 10 nM, respectively. The experimental procedure is described below using the diluted 2 μM test compound as an example.
0.5 μL of the aforementioned diluted compound of the present disclosure (including the compounds in Table 1, Table 2, and Examples 1-468) was added to the seeded cells in 100 μL of medium, yielding a final test compound concentration of 10 nM. After the cells were treated with the compounds of the present disclosure for a specified period, the cell viability assay reagent was added to the culture medium according to the kit's instructions to determine cell viability. […] All controls were treated using the same procedure as the compounds of the present disclosure. The growth inhibition curves for the compounds of the present disclosure were plotted using Prism GraphPad software, and the IC50 values were calculated therefrom.

CDK4 = biological target: T1, CDK4 (Homo sapiens, UniProt P11802+Q96SW2); assay: Western blot degradation of CDK4; format: cell-based; details: MDA-MB-231 Cell; 24 hours
T1 construct: expression of target proteins in cells; endogenous in cells
In short: (§2)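 Cells treated with compound, lysed, and target protein detected by Western blot (SDS-PAGE, nitrocellulose transfer). DC50 taken as the concentration giving band grayscale half that of DMSO control, estimated by concentration-response fitting; remaining protein (%) from target band normalised to internal control band; degradation (%) = 1 − remaining.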

CDK6 = biological target: T2, CDK6 (Homo sapiens, UniProt Q00534+Q96SW2); assay: Western blot degradation of CDK6; format: cell-based; details: MDA-MB-231 Cell; 24 hours
T2 construct: expression of target proteins in cells; endogenous in cells
In short: as §2

BTK = biological target: T3, BTK (Homo sapiens, UniProt Q06187); assay: Western blot degradation of BTK; format: cell-based; details: Table IIA4, BTK inhibitor-based
T3 construct: expression of target proteins in cells; endogenous in cells
Method: (§3) Conventional Western blot assay was performed to evaluate the effects of the compounds of the present disclosure on the expression of target proteins in cells.
(§4) (1) Cell Seeding and Protein Harvesting: The selected cells were processed according to the cell seeding procedure and protein harvesting procedure in Table II-2.
(§5) (2) To the collected supernatant, 5×SDS sample loading buffer was added, followed by denaturation at 95 °C for 5 minutes. The denatured samples were then separated by SDS-PAGE electrophoresis on a polyacrylamide gel. Proteins were transferred to a nitrocellulose membrane (0.45 μm NC membrane), blocked with blocking buffer at room temperature for 1 hour, and subjected to antibody incubation and development procedures according to the antibody manufacturer's instructions (Cell Signaling Technology).
(§6) Half-Maximal Degradation Concentration value (the drug concentration required for degrading proteins by 50%, abbreviated as DC50) reads method: comparing the grayscale values of Western blot bands from drug-treated samples with those from blank DMSO-treated controls, and identifying the drug concentration range at which the grayscale value is half that of the DMSO-treated control bands.
(§7) DC50 values can be calculated using ImageJ software to measure grayscale values of Western blot bands from drug-treated samples. The concentration-response curve is fitted to estimate the drug concentration corresponding to half the grayscale value.
(§8) Target protein remaining (%) refers to the percentage of target protein remaining in cells after treatment with protein degrader compounds.
(§9) Calculation method for target protein remaining (%): Use ImageJ software to measure grayscale values of Western blot bands from drug (protein degrader)-treated samples. The grayscale value of drug-treated bands is divided by that of internal control protein bands, and the resulting quotient is normalized to obtain the relative percentage of remaining target protein after protein degrader treatment.
(§10) Target protein degradation rate (%)=1−target protein remaining (%).

[6] = biological target: T4, human Cereblon WT GST-tagged protein (CRBN) (Homo sapiens, UniProt Q96SW2); assay: CRBN binding by HTRF (Cereblon binding kit)
T4 construct: purchased CISBIO 64BDCRBNPEH
In short: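 GST-tagged human Cereblon WT was incubated 3 h at room temperature with compound, thalidomide-Re tracer and Eu anti-GST antibody. Final compound concentrations were 10 to 0.00064 µM (7 points) or 2 and 0.5 µM. Inhibition rate was calculated from HTRF 665/620 nm ratios versus solvent and blank controls.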

Tau = biological target: T5, Tau (Homo sapiens, UniProt P10636); assay: Western blot degradation of Tau; format: cell-based; details: H4 Cell; 24 hours
T5 construct: endogenous in cells
Method: as §3, §4, §5, §6, §7, §8, §9, §10

T5 sequence (P10636 whole entry): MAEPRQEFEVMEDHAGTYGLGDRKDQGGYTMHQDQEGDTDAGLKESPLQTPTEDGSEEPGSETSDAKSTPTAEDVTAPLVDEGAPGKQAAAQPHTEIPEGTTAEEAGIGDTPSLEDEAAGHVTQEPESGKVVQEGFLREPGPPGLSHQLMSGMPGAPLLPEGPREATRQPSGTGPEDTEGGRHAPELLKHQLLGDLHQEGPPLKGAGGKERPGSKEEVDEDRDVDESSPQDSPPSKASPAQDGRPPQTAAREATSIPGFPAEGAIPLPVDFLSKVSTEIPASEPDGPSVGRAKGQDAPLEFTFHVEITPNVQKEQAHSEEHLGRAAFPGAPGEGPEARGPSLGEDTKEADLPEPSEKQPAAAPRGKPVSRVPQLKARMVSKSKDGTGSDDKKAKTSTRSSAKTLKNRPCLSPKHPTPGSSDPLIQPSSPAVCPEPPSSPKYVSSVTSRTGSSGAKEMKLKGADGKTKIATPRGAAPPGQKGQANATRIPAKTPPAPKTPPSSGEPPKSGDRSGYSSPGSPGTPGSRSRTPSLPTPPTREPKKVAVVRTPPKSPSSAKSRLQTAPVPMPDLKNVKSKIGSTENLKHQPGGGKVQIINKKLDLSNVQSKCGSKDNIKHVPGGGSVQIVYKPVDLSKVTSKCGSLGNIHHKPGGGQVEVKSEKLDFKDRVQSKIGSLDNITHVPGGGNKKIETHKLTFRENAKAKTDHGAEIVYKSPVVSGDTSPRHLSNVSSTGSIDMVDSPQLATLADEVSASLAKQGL
T2 sequence (Q00534 whole entry): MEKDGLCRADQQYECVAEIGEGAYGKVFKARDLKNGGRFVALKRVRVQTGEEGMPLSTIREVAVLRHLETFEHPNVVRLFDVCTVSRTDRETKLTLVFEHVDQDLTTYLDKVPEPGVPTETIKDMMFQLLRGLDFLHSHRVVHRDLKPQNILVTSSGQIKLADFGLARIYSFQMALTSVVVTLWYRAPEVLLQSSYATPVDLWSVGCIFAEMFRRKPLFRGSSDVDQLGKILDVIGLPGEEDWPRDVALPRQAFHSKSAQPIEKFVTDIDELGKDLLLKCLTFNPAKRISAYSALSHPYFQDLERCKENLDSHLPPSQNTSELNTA
T2 sequence (Q96SW2 whole entry): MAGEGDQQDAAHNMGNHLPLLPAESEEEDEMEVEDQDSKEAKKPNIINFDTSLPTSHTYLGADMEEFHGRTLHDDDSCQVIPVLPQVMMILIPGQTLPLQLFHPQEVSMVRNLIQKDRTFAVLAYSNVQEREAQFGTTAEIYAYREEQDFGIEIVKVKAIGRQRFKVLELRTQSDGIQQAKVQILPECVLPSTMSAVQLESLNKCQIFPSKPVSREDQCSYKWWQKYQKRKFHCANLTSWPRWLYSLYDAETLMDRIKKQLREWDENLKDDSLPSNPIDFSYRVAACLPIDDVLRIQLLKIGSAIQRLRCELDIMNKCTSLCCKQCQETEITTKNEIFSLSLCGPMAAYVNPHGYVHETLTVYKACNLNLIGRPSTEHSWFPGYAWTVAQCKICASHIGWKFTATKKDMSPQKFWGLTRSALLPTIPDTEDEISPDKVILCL
T2 sequence (Q16531 whole entry partner): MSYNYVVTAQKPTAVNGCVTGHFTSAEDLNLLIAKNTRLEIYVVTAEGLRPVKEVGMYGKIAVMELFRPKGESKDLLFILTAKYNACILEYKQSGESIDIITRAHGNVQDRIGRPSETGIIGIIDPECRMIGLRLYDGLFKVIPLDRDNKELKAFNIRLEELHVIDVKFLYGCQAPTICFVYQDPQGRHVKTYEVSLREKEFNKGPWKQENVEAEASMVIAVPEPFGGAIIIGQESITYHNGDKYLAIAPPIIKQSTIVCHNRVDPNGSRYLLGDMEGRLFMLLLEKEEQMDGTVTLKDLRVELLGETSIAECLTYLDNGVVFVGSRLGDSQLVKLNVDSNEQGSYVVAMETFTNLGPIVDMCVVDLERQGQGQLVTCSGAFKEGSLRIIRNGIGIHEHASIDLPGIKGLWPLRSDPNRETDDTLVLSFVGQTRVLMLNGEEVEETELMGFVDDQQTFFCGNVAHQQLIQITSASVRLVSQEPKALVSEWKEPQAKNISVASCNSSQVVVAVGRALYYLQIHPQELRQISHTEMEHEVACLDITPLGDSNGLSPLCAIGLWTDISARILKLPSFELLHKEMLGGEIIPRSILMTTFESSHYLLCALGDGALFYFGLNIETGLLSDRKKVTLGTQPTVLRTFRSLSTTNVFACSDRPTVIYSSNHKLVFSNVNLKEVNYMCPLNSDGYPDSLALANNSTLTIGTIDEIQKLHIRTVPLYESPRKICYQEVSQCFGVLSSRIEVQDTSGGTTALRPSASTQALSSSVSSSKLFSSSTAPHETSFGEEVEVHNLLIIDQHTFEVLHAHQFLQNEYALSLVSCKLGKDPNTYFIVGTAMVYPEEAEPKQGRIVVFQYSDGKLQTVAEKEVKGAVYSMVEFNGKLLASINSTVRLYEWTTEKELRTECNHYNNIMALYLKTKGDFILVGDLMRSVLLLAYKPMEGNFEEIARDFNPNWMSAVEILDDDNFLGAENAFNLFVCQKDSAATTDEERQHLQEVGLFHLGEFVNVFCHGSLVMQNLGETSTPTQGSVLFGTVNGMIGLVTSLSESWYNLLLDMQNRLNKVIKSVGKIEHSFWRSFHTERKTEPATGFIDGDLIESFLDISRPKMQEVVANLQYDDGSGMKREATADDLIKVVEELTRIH
T1 sequence (P11802 whole entry): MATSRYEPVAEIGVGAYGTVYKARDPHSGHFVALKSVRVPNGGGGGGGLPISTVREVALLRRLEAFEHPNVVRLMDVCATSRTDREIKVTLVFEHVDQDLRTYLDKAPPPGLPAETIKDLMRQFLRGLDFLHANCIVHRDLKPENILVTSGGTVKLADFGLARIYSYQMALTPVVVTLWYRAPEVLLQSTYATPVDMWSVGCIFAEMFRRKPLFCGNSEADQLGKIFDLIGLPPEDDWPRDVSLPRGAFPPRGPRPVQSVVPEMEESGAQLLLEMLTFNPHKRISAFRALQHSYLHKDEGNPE
T1 sequence (Q96SW2 whole entry): as the sequence (Q96SW2 whole entry) above
T1 sequence (Q16531 whole entry partner): as the sequence (Q16531 whole entry partner) above
T3 sequence (Q06187 whole entry): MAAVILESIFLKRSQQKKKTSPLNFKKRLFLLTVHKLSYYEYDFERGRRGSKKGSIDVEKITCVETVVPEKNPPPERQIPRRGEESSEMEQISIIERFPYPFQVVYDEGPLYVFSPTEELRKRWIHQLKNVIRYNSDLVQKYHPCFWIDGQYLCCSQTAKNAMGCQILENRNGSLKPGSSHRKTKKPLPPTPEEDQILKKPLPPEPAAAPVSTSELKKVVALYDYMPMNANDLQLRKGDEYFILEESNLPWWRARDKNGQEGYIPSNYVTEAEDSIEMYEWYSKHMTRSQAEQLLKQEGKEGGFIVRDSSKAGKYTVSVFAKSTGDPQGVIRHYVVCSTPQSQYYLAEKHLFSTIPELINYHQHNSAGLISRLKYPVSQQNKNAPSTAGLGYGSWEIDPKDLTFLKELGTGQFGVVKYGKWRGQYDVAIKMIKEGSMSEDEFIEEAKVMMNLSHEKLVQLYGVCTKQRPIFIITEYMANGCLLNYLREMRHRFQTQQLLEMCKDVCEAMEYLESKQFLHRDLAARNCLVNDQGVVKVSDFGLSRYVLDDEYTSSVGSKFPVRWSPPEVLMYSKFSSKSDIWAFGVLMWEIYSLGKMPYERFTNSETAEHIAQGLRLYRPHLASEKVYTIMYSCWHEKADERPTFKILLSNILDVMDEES
T4 sequence (Q96SW2 whole entry): as the sequence (Q96SW2 whole entry) above

- IC50 [1]: 10 to 50 nM
- IC50 [2]: 100 to 300 nM
- IC50 [3]: 10 to 50 nM
- IC50 [4]: 100 to 300 nM
- IC50 [5]: 50 to 100 nM
- Degradation of substrate protein CDK6 (substrate protein remaining %) (CDK6): A (0%≤substrate protein remaining %≤80%)
Compound: Cc1nc2c(F)cc(-c3nc(Nc4ccc(N5CCC(N6CCN(Cc7ccc8c(c7)CN(N7CCC(=O)NC7=O)C8=O)CC6)CC5)cn4)ncc3F)cc2n1C(C)C [GT-06736, 1-(5-((4-(1-(6-((5-fluoro-4-(4-fluoro-1-isopropyl-2-methyl-1H-benzo[d]imidazol-6-yl)pyrimidin-2-yl)amino)pyridin-3-yl)piperidin-4-yl)piperazin-1-yl)methyl)-1-oxoisoindolin-2-yl)dihydropyrimidine-2,4 (1H,3H)-dione]
- Degradation of substrate protein CDK4 (substrate protein remaining %) (CDK4): B (80%<substrate protein remaining %≤100%)

- Degradation of substrate protein BTK (substrate protein remaining %) (BTK): A (0%≤substrate protein remaining %≤80%)
- inhibition at 0.5 µM ([6]; 0.5 μM, read-out: Inhibition Rate at 0.5 μM (%)): 10 to 20%
- inhibition at 2 µM ([6]; 2 μM, read-out: Inhibition Rate at 2 μM (%)): 53 to 60%
Compound: Nc1ncnc2c1c(-c1ccc(Oc3ccccc3)cc1)nn2C1CCN(CC2CCN(C3CCN(c4ccc5c(c4)C(=O)N(N4CCC(=O)NC4=O)C5=O)CC3)CC2)CC1 [GT-05096, 5-(4-((4-(4-amino-3-(4-phenoxyphenyl)-1H-pyrazolo[3,4-d]pyrimidin-1-yl)piperidin-1-yl)methyl)-[1,4′-bipiperidin]-1′-yl)-2-(2,4-dioxotetrahydropyrimidin-1(2H)-yl)isoindoline-1,3-dione]

- Degradation of substrate protein Tau (substrate protein remaining %) (Tau): A (0%≤substrate protein remaining %≤80%)
Compound: O=C1CCN(N2C(=O)c3ccc(CN4CCN(C5CCN(c6ccn7c(n6)nc6ccccc67)CC5)CC4)cc3C2=O)C(=O)N1 [GT-08568, 5-((4-(1-(benzo[4,5]imidazo[1,2-a]pyrimidin-2-yl)piperidin-4-yl)piperazin-1-yl)methyl)-2-(2,4-dioxotetrahydropyrimidin-1(2H)-yl)isoindoline-1,3-dione]

- Degradation of substrate protein Tau (substrate protein remaining %) (Tau): A (0%≤substrate protein remaining %≤80%)
Compound: Cn1ncc(Cl)c1-c1cc(C(=O)N[C@H](CNCC2CCN(c3cccc4c3C(=O)N(N3CCC(=O)NC3=O)C4=O)CC2)Cc2ccc(F)c(F)c2)oc1Cl [GT-08589, (S)-5-chloro-4-(4-chloro-1-methyl-1H-pyrazol-5-yl)-N-(1-(3,4-difluorophenyl)-3-(((1-(2-(2,4-dioxotetrahydropyrimidin-1(2H)-yl)-1,3-dioxoisoindolin-4-yl)piperidin-4-yl)methyl)amino)propan-2-yl) furan-2-carboxamide]

- IC50 [1]: 10 to 50 nM
- IC50 [2]: 100 to 300 nM
- IC50 [3]: 10 to 50 nM
- IC50 [4]: 100 to 300 nM
- IC50 [5]: 100 to 300 nM
- Degradation of substrate protein CDK4 (substrate protein remaining %) (CDK4): A (0%≤substrate protein remaining %≤80%)
- Degradation of substrate protein CDK6 (substrate protein remaining %) (CDK6): A (0%≤substrate protein remaining %≤80%)
Compound: Cc1nc2c(F)cc(-c3nc(Nc4ccc(N5CCC(N(C)Cc6ccc7c(c6)CN(N6CCC(=O)NC6=O)C7=O)CC5)cn4)ncc3F)cc2n1C(C)C [GT-06837, 1-(5-(((1-(6-((5-fluoro-4-(4-fluoro-1-isopropyl-2-methyl-1H-benzo[d]imidazol-6-yl)pyrimidin-2-yl)amino)pyridin-3-yl)piperidin-4-yl)(methyl)amino)methyl)-1-oxoisoindolin-2-yl)dihydropyrimidine-2,4 (1H,3H)-dione]

- Degradation of substrate protein Tau (substrate protein remaining %) (Tau): A (0%≤substrate protein remaining %≤80%)
Compound: O=C1CCN(N2C(=O)c3ccc(N4CCN(CC5CCN(c6ccn7c(n6)nc6ccccc67)CC5)CC4)c(F)c3C2=O)C(=O)N1 [GT-08824, 5-(4-((1-(benzo[4,5]imidazo[1,2-a]pyrimidin-2-yl)piperidin-4-yl)methyl)piperazin-1-yl)-2-(2,4-dioxotetrahydropyrimidin-1(2H)-yl)-4-fluoroisoindoline-1,3-dione]

- Degradation of substrate protein Tau (substrate protein remaining %) (Tau): A (0%≤substrate protein remaining %≤80%)
Compound: Cn1ncc(Cl)c1-c1cc(C(=O)N[C@@H](Cc2ccc(F)c(F)c2)CN2CCN(CC3CCN(c4cccc5c4C(=O)N(N4CCC(=O)NC4=O)C5=O)CC3)CC2)oc1Cl [GT-08590, (S)-5-chloro-4-(4-chloro-1-methyl-1H-pyrazol-5-yl)-N-(1-(3,4-difluorophenyl)-3-(4-((1-(2-(2,4-dioxotetrahydropyrimidin-1(2H)-yl)-1,3-dioxoisoindolin-4-yl)piperidin-4-yl)methyl)piperazin-1-yl)propan-2-yl) furan-2-carboxamide]

- Degradation of substrate protein BTK (substrate protein remaining %) (BTK): A (0%≤substrate protein remaining %≤80%)
Compound: Nc1ncnc2c1c(-c1ccc(Oc3ccccc3)cc1)nn2C1CCN(CC2CCN(c3cccc4c3C(=O)N(N3CCC(=O)NC3=O)C4=O)CC2)CC1 [GT-05077, 4-(4-((4-(4-amino-3-(4-phenoxyphenyl)-1H-pyrazolo[3,4-d]pyrimidin-1-yl)piperidin-1-yl)methyl)piperidin-1-yl)-2-(2,4-dioxotetrahydropyrimidin-1(2H)-yl)isoindoline-1,3-dione]

- Degradation of substrate protein Tau (substrate protein remaining %) (Tau): A (0%≤substrate protein remaining %≤80%)
Compound: Cn1ncc(Cl)c1-c1cc(C(=O)N[C@@H](Cc2cccc(F)c2)CN2CCN(CC3CCN(c4cccc5c4C(=O)N(N4CCC(=O)NC4=O)C5=O)CC3)CC2)sc1Cl [GT-08591, (S)-5-chloro-4-(4-chloro-1-methyl-1H-pyrazol-5-yl)-N-(1-(4-((1-(2-(2,4-dioxotetrahydropyrimidin-1(2H)-yl)-1,3-dioxoisoindolin-4-yl)piperidin-4-yl)methyl)piperazin-1-yl)-3-(3-fluorophenyl)propan-2-yl)thiophene-2-carboxamide]
